From PMC6863074 (Journal of medicinal chemistry, 2015)
Converted amounts (≈) assume the structure as drawn.

What was measured:
HepG2 cells = assay: XTT cytotoxicity assay with HepG2 cells
S. epidermis ATCC 35547 = assay: MIC determination, S. epidermis ATCC 35547; format: cell-based
S. aureus ATCC 29213 [1] = assay: MIC determination, S. aureus ATCC 29213; conditions: S. aureus ATCC 29213 MIC screening; active = MIC ≤ 8 μg/mL
S. aureus ATCC 29213 [2] = assay: Minimal-bactericidal concentration; conditions: S. aureus ATCC 29213 (MSSA); MBC = >1000-fold reduction in colonies
Full PK study in mice = conditions: mouse
S. aureus ATCC 29213 [3] = conditions: S. aureus ATCC 29213, MSSA quality-control strain; cited from earlier work

Structure (SMILES): CC(C)Nc1c[nH]nc1-c1nc(-c2ccc(Oc3ccc(C(F)(F)F)cc3)cc2)no1 [65b, N-Isopropyl-3-(3-(4-(4-(trifluoromethyl)phenoxy)phenyl)-1,2,4-oxadiazol-5-yl)-1H-pyrazol-4-amine]
- IC50 (HepG2 cells; Homo sapiens, HepG2, read-out: XTT HepG2 IC50): 3.9 ± 0.8 µg/mL (≈ 9.08 µM)
- MIC (S. epidermis ATCC 35547): > 128 µg/mL
- antibacterial activity (in words) (S. aureus ATCC 29213 [1]): active

Structure (SMILES): FC(F)(F)c1ccc(Oc2ccc(-c3noc(-c4ccc5[nH]ccc5c4)n3)cc2)cc1 [75b, 5-(1H-Indol-5-yl)-3-(4-(4-(trifluoromethyl)phenoxy)phenyl)-1,2,4-oxadiazole]
- fold less toxic compared to the lead 1 (XTT HepG2) (HepG2 cells; HepG2 cells, versus compound 1): 5 fold
- MBC relative to MIC (S. aureus ATCC 29213 [2]): the same as the MIC value
- clearance as % of hepatic blood flow (Full PK study in mice; 20 mg/kg iv): less than 10%
- t1/2α (Full PK study in mice; 20 mg/kg iv): t1/2α = 0.54 min
- t1/2dist (Full PK study in mice; 20 mg/kg po): t1/2dist = 15.9 h
- fold higher volume of distribution than 1 (Full PK study in mice; versus compound 1): 13 fold
- fold lower clearance than 1 (Full PK study in mice; versus compound 1): 3 fold

Structure (SMILES): CC(=O)NC[C@H]1CN(c2ccc(N3CCOCC3)c(F)c2)C(=O)O1 [linezolid]
- MIC (S. aureus ATCC 29213 [3]): 4 µg/mL (≈ 11.9 µM)
